# Measurements as given in the METLIN SMRT retention time set (Domingo-Almenara et al. 2019).
# Assay: gradient 5% acetonitrile 3 min, to 50% in 2 min, to 85% in 15 min, held 3 min, 100 µL/min
# Conditions: column: Zorbax Extend-C18 2.1 x 50 mm; eluents: water / acetonitrile, 0.1% formic acid
# How it was run: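 The system's dead and dwell volumes were 40 μL and 900 μL, with a Zorbax Extend-C18 column (2.1 × 50 mm, 1.8 μm) run at 100 μL/min in water and acetonitrile containing 0.1% formic acid each. Pure standards were analyzed in mixtures of ~100 molecules by HPLC–quadrupole time-of-flight mass spectrometry in positive and negative ionization mode. Retention time was assigned from computationally picked, manually inspected adduct peaks.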
row,SMILES,RP-LC retention time [s]
1,O=C(NCC1CC1)c1cn(-c2ccc(-c3nc(C4CC4)no3)cn2)cn1,843
2,CCCc1nc(-c2c(C)cc(C)nc2NC(=O)c2ccc(F)cc2Cl)no1,937
3,Cc1sc(-c2noc(C3CC3)n2)cc1S(=O)(=O)N1CCC(C(=O)NC2CCCCCC2)CC1,1080
4,O=C(c1nc(-c2ccccc2)nc2c1OCO2)N1CCCC1,815
5,CCCCN(C)C(=O)Cn1ccn2nc(-c3ccc(F)cc3)c(CO)c2c1=O,765
6,COc1ccc(CCNC(=O)CSc2nc3sc(C)cc3c(=O)n2C)cc1OC,689
7,Cc1cc2nn(CC(=O)N3CCc4ccccc43)c(=O)n2c(Nc2ccccc2C)n1,1080
8,Cc1nnc([C@@H]2CC(F)(F)CN2C(=O)c2ccc3c(c2)OCO3)o1,703
9,COC(=O)c1cn(CC(=O)NCc2ccc3c(c2)OCCCO3)c2ccccc12,852
10,COC(=O)c1ccsc1NC(=O)CCS(=O)(=O)c1ccccc1,788
11,O=C(NCc1ccccc1Cl)c1ccc(=O)n(CCN2CCOCC2)c1,609
12,Cc1cc(C2CCCN2C(=O)Cc2c(F)cccc2Cl)on1 (configuration not stated),848
13,CC(C)Oc1ccccc1CN1C[C@@H](CO)[C@H](c2ccncc2)C1,569
14,Cn1nc(C2CCCN(C(=O)c3ccco3)C2)n(C2CCCC2)c1=O (configuration not stated),701
15,COc1ccc(NC(=O)c2cccn2Cc2noc(C)n2)cc1,776
16,CCn1ccc(C(=O)N2CCn3c(nnc3-c3ccccc3)C2)n1,604
17,CCOc1ccc(-n2nnc(-c3nc(-c4ccccc4OC)cs3)c2N)cc1,1170
18,CCCN1CCN(CCCNC(=O)C2CCN(Cc3cn(C)c4ccc(Cl)cc34)CC2)CC1,541
19,CN(CCNC(=O)C1CCCN(c2nnc(-n3cccc3)s2)C1)C1CCCCC1 (configuration not stated),650
20,CC(=O)N1CCc2cc(N3CC(C(=O)Nc4ccc(C(F)(F)F)cc4)CC3=O)ccc21 (configuration not stated),798
21,CCOC(=O)c1[nH]c(C)c(CCC(=O)N2CCC(C(=O)NCc3ccc(F)cc3)CC2)c1C,785
22,Cc1ccc(N2CCC(NC(=O)c3ccc(C#N)cc3)C2=O)cc1 (configuration not stated),798
23,COCc1noc(C2CCCCN2C(=O)CCc2ccccc2OC)n1 (configuration not stated),902

row,SMILES,RP-LC retention time [s]
1,CC(C)(C)c1ccc(C(=O)NCCCn2ncccc2=O)cc1,731
2,O=C(CNC(=O)c1ccc(=O)[nH]c1)Nc1ccc(-n2cnnn2)cc1,544
3,CCN1C(=O)c2cccnc2Sc2cc(CNC(=O)c3cccc(C#N)c3)ccc21,756
4,CCc1nc(OCC(=O)NCc2ccc(OC)cc2)c2ccccc2n1,746
5,O=C(COc1ccc(C(=O)N2CCN(CCc3ccccc3)CC2)cc1)C1CC1,583
6,CCCNC(=O)NC1CCN(c2nc3cccnc3n(Cc3ccc(C)cc3)c2=O)CC1,1010
7,Cc1nc(-c2ccc(-c3noc(C(NS(=O)(=O)c4ccccc4)C(C)C)n3)cc2)cs1 (configuration not stated),1120
8,CC(C)(C)c1ccc(C(=O)Nc2ccc3nnc(C4CCC4)n3c2)cc1,772
9,Cn1nccc1-c1cccc(-c2noc(-c3ccc(CS(=O)(=O)c4ccccc4)cc3)n2)c1,1080
10,COc1ccccc1C(=O)Nc1cc(-c2ccccn2)no1,980
11,O=C(Nc1ccc2nnc(-c3ccc(C(=O)N4CCCCC4)cc3)n2c1)C1CCC1,562
12,CCCN1CCn2cc(C(=O)NCc3cccc(Br)c3)nc2C1,624
13,O=C(NCc1ccncc1)C1CCCN(c2nnc3c(Cl)cccn23)C1 (configuration not stated),561
14,CCc1cc(=O)n(CC(=O)Nc2cc(OC)cc(OC)c2)c(N2CCOCC2)n1,738
15,Cc1cccc(N2CCN(Cc3nc(-c4ccc(N5CCC(C)CC5)nc4)no3)CC2)c1,1110
16,Cc1c(C(=O)NC2CC2)cnn1-c1ccc(-c2nc(C(C)(C)C)no2)cn1,947
17,Cc1cc(OCC(=O)N(Cc2ccc(N(C)C)cc2)C2CCS(=O)(=O)C2)ccc1Cl (configuration not stated),839
18,CCCn1c(=O)c(C)nc2cc(-c3noc(-c4ccc5c(c4)OCO5)n3)ccc21,1150
19,O=C1CCCN1CCCN(CC(=O)N1CCNCC1)C(=O)c1ccc(C(F)(F)F)cc1,602
20,Cc1sc(-c2cc(C(F)(F)F)[nH]n2)cc1S(=O)(=O)N1CCN(c2ccccc2)CC1,1110
21,Cc1nn(C(C)C(=O)NCCCN2CCN(C)CC2)c(=O)c2c1sc1ccccc12 (configuration not stated),592
22,CCC1CCCCN1CCCNC(=O)c1sc2nc3n(c(=O)c2c1C)CCC3 (configuration not stated),598
23,CCOc1nc2ccccc2nc1N1CCCC(C(=O)Nc2ccc(C(C)C)cc2)C1 (configuration not stated),1240

row,SMILES,RP-LC retention time [s]
1,CCn1c(CCNC(=O)c2ccc(C)s2)nc2cccnc21,634
2,Cc1nc2nc(C)c(CCC(=O)N3CCC(Cc4ccccc4)CC3)c(C)n2n1,804
3,COCCN1C(=O)c2cccn2CC1CNC(=O)c1ccc(Cc2c(C)noc2C)o1 (configuration not stated),679
4,O=C(N[C@H]1C[C@@H]2C[C@H]1CN2C(=O)c1ccc(OC(F)(F)F)cc1)c1ccccc1,786
5,Cc1nc2c(c(SCC(=O)Nc3nc(-c4ccccc4)cs3)n1)CCC2,982
6,CSc1ccc(-c2nc3ccc(Br)cn3c2NC2CCCCC2)cc1,955
7,CCc1c(C2CCN(C(=O)c3ccnn3CC)CC2)noc1N,652
8,COc1cn(CC(=O)Nc2ccc(OC(F)(F)F)cc2)c(CO)cc1=O,618
9,CC(=O)N1CCC(C(=O)N(C)C2CCc3nn(C)c(=O)n3CC2)CC1 (configuration not stated),569
10,CCn1nccc1-c1cccc(-c2noc(-c3ccc(C)c(C)c3)n2)c1,1420
11,COc1ccc(-c2nnc3sc(-c4cc(C)on4)nn23)cc1,864
12,Cn1ncc2c3ccccc3n(CC(=O)NCCCN3CCCCCC3)c2c1=O,561
13,Cn1nnc2ccc(-c3noc(-c4ccccc4F)n3)cc21,876
14,Cc1noc(C)c1Cc1c(C(=O)NCCc2noc(C3CC3)n2)noc1C,774
15,COc1ccc(S(=O)(=O)N2CCCC(C)(C(=O)NCc3cccc(OC)c3)C2)cc1 (configuration not stated),903
16,CCN1CCN(C(=O)c2nnc(-c3ccc(S(=O)(=O)N4CCCCC4)cc3)o2)CC1,665
17,O=C(c1ccccc1)N1CCC(n2c(-c3ccco3)nc3cccnc32)C1 (configuration not stated),716
18,CCC(=O)N1CCc2sc(C(=O)N3CCN(c4ccc(Cl)cc4)CC3)cc2C1,899
19,O=C(Nc1nnc(SCc2cccc(F)c2)s1)C1CCCCC1,1010
20,O=C(Nc1ccc2c(c1)C(=O)NC2=O)c1cccc([N+](=O)[O-])c1,696
21,O=C(c1c(F)cccc1Cl)N1CCc2nc(-c3ccc(Cl)cc3)ncc2C1,1160
